Source: BindingDB's records for doi:10.1021/jm00006a007 (Parke-Davis Pharmaceutical Research, 1995)

Each compound was assayed against T1, Dimer of Gag-Pol polyprotein [489-587] (Human immunodeficiency virus 1, UniProt P12497) (assay: Protease Inhibition Assay). Details: pH 4.7; 37 °C.
T1 construct: 489-587
Description: For determination of IC50 values, HIV-1 protease was added to assay buffer containing inhibitor and the substrate (H-His-Lys-Ala-Arg-Val-Leu- (p-NO2) Phe-Glu-Ala-norleucine-Ser-NH2). The Leu- (p-NO2) Phe bond of the substrate was cleaved by the enzyme, and the substrate and products were separated by reversed-phase HPLC. Absorbance was measured at 220 nm, peak areas were determined, and percentage conversion to product was calculated.

Structure (SMILES) | IC50 | Ki
O=c1oc(-c2ccccc2)cc(O)c1C(CC1CC1)SCc1ccccc1 (racemic) [3-[1-(benzylsulfanyl)-2-cyclopropylethyl]-4-hydroxy-6-phenyl-2H-pyran-2-one] | 84 nM | 
O=c1oc(-c2ccccc2)cc(O)c1C(CC1CCCC1)SC1CCCCC1 (racemic) [3-[1-(cyclohexylsulfanyl)-2-cyclopentylethyl]-4-hydroxy-6-phenyl-2H-pyran-2-one] | 541 nM | 
O=c1oc(-c2ccccc2)cc(O)c1C(CC1CC1)SC1CCCCC1 (racemic) [3-[1-(cyclohexylsulfanyl)-2-cyclopropylethyl]-4-hydroxy-6-phenyl-2H-pyran-2-one] | 147 nM | 
O=c1oc(-c2ccccc2)cc(O)c1C(CC1CC1)SC1CCCC1 (racemic) [3-[1-(cyclopentylsulfanyl)-2-cyclopropylethyl]-4-hydroxy-6-phenyl-2H-pyran-2-one] | 69 nM | 
O=c1oc(-c2ccccc2)cc(O)c1C(SCc1ccccc1)c1ccccc1 (racemic) [3-[(benzylsulfanyl)(phenyl)methyl]-4-hydroxy-6-phenyl-2H-pyran-2-one] | 480 nM | 
O=c1oc(-c2ccccc2)cc(O)c1C(SC1CCCC1)C1CCCC1 (racemic) [3-[cyclopentyl(cyclopentylsulfanyl)methyl]-4-hydroxy-6-phenyl-2H-pyran-2-one] | 225 nM | 
O=c1oc(-c2ccccc2)cc(O)c1C(Sc1ccc2ccccc2c1)c1ccccc1 (racemic) [4-hydroxy-3-[(naphthalen-2-ylsulfanyl)(phenyl)methyl]-6-phenyl-2H-pyran-2-one] | 2450 nM | 
O=c1oc(-c2ccccc2)cc(O)c1C(Sc1ccccc1)c1ccc2ccccc2c1 (racemic) [4-hydroxy-3-[naphthalen-2-yl(phenylsulfanyl)methyl]-6-phenyl-2H-pyran-2-one] | 7820 nM | 
CC(C)CC(SC1CCCC1)c1c(O)cc(-c2ccccc2)oc1=O (racemic) [(+/-)-3-[1-(Cyclopentylthio)-3-methylbutyl]-4-hydroxy-6-phenyl-2H-pyran-2-one] |  | 33 nM
O=c1oc(-c2ccccc2)cc(O)c1C(Sc1ccccc1)C1CCCCC1 (racemic) [(+/-)-3-[Cyclohexyl(phenylthio)methyl]-4-hydroxy-phenyl-2H-pyran-2-one] | 2440 nM | 
O=c1oc(-c2ccccc2)cc(O)c1C(Sc1ccccc1)c1ccccc1 (racemic) [(+/-)-4-Hydroxy.6-phenyl-3-[phenyl(phenylthio)methyl]-2H-pyran-2-one] | 780 nM | 
O=c1oc(-c2ccccc2)cc(O)c1C(SC1CCCCC1)c1ccccc1 (stereo not drawn) [3-[(cyclohexylsulfanyl)(phenyl)methyl]-4-hydroxy-6-phenyl-2H-pyran-2-one] | 480 nM | 
O=c1oc(-c2ccccc2)cc(O)c1CSc1ccccc1 [4-hydroxy-6-phenyl-3-[(phenylsulfanyl)methyl]-2H-pyran-2-one] | 84300 nM | 
